Our source for the Ki values is patent publication US7125990B2, “Imidazolyl derivatives as corticotropin releasing factor inhibitors” (Bristol-Myers Squibb COmpany, priority 2001, dated 2006).

Usually Ki stands for the equilibrium dissociation constant of an inhibitor or competing ligand from its target.

Bounds are passed on as bounds.

This assay has as its target T1, CRF1 receptors (Homo sapiens, UniProt P34998).
T1 construct: endogenous in cells; host or cells: IMR-32 cells, transformed with 2.5 µM 5'-bromo-2'-deoxyuridine for 10 days; membrane preparation
T1 sequence (P34998 24-415): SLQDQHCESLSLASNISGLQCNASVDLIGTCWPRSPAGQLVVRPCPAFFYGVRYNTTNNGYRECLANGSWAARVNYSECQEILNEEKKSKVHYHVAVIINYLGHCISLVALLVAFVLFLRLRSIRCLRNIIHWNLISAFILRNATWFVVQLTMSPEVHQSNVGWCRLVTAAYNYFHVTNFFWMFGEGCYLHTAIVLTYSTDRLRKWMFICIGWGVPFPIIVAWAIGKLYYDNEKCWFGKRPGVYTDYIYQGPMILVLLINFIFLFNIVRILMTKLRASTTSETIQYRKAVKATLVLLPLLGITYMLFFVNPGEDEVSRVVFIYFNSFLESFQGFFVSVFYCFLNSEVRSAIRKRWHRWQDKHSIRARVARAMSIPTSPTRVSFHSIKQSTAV
As to the kind of experiment: CRF1 receptor radioligand binding assay ([125I]-oCRF competition, IMR-32 cell membranes). To be noted: IMR-32 cell membranes, [125I]-oCRF 100 pM; read-out: Ki (CRF-1R). A digest of the protocol:
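Buffer: Tris pH 7.2 with MgCl2, BSA, Triton X-100, aprotinin, leupeptin; reaction stopped with ice-cold wash and filtered. Nonspecific binding set with 10 μM oCRF.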
As to `Cc1cc(C)c(-n2c(Cl)cn3c(CN(CC4CC4)CC(F)(F)F)c(C(F)(F)F)nc23)c(C)c1` [Example 304, [6-Chloro-2-trifluoromethyl-7-(2,4,6-trimethyl-phenyl)-7H-imidazo[1,2-a]imidazol-3-ylmethyl]-cyclopropylmethyl-(2,2,2-trifluoro-ethyl)-amine], the Ki was < 10 nM.
As for `Cc1cc(C)c(-n2c(Cl)cn3c(CN4CC=CCC4)c(C(F)(F)F)nc23)c(C)c1` [Example 305, 2-Chloro-5-(3,6-dihydro-2H-pyridin-1-ylmethyl)-6-trifluoromethyl-1-(2,4,6-trimethyl-phenyl)-1H-imidazo[1,2-a]imidazole], the figure is < 1000 nM; as for `Cc1cc(C)c(-n2c(Cl)cn3c(CN4CCSCC4)c(C(F)(F)F)nc23)c(C)c1` [Example 306, 2-Chloro-5-thiomorpholin-4-ylmethyl-6-trifluoromethyl-1-(2,4,6-trimethyl-phenyl)-1H-imidazo[1,2-a]imidazole], < 1000 nM; as for `Cc1cc(C)c(-n2c(Cl)cn3c(CN(C)Cc4ccccc4)c(C(F)(F)F)nc23)c(C)c1` [Example 307, Benzyl-[6-chloro-2-trifluoromethyl-7-(2,4,6-trimethyl-phenyl)-7H-imidazo[1,2-a]imidazol-3-ylmethyl]-methyl-amine], < 1000 nM.
In the case of `Cc1cc(C)c(-n2c(Cl)cn3c(CN(C)CCc4ccccc4)c(C(F)(F)F)nc23)c(C)c1` [Example 308, [6-Chloro-2-trifluoromethyl-7-(2,4,6-trimethyl-phenyl)-7H-imidazo[1,2-a]imidazol-3-ylmethyl]-methyl-phenethyl-amine] it was < 1000 nM.
Regarding `CCN(Cc1ccccc1)Cc1c(C(F)(F)F)nc2n(-c3c(C)cc(C)cc3C)c(Cl)cn12` [Example 309, Benzyl-[6-chloro-2-trifluoromethyl-7-(2,4,6-trimethyl-phenyl)-7H-imidazo[1,2-a]imidazol-3-ylmethyl]-ethyl-amine], the Ki is < 1000 nM.
For `CCCCN(C)Cc1c(C(F)(F)F)nc2n(-c3c(C)cc(C)cc3C)c(Cl)cn12` [Example 310, Butyl-[6-chloro-2-trifluoromethyl-7-(2,4,6-trimethyl-phenyl)-7H-imidazo[1,2-a]imidazol-3-ylmethyl]-methyl-amine], the Ki is < 1000 nM.
As for `CCCCN(Cc1ccccc1)Cc1c(C(F)(F)F)nc2n(-c3c(C)cc(C)cc3C)c(Cl)cn12` [Example 311, Benzyl-butyl-[6-chloro-2-trifluoromethyl-7-(2,4,6-trimethyl-phenyl)-7H-imidazo[1,2-a]imidazol-3-ylmethyl]-amine], the figure is < 1000 nM.
In the case of `C=C(C)CN(CC)Cc1c(C(F)(F)F)nc2n(-c3c(C)cc(C)cc3C)c(Cl)cn12` [Example 312, [6-Chloro-2-trifluoromethyl-7-(2,4,6-trimethyl-phenyl)-7H-imidazo[1,2-a]imidazol-3-ylmethyl]-ethyl-(2-methyl-allyl)-amine] it was < 100 nM; in that of `CCCN(Cc1ccc([N+](=O)[O-])cc1)Cc1c(C(F)(F)F)nc2n(-c3c(C)cc(C)cc3C)c(Cl)cn12` [Example 313, [6-Chloro-2-trifluoromethyl-7-(2,4,6-trimethyl-phenyl)-7H-imidazo[1,2-a]imidazol-3-ylmethyl]-(4-nitro-benzyl)-propyl-amine], < 1000 nM.
In the case of `Cc1cc(C)c(-n2c(Cl)cn3c(CN(C)Cc4ccco4)c(C(F)(F)F)nc23)c(C)c1` [Example 314, [6-Chloro-2-trifluoromethyl-7-(2,4,6-trimethyl-phenyl)-7H-imidazo[1,2-a]imidazol-3-ylmethyl]-furan-2-ylmethyl-methyl-amine], the Ki is < 1000 nM.
As for `CCN(Cc1ccc(Cl)c(Cl)c1)Cc1c(C(F)(F)F)nc2n(-c3c(C)cc(C)cc3C)c(Cl)cn12` [Example 315, [6-Chloro-2-trifluoromethyl-7-(2,4,6-trimethyl-phenyl)-7H-imidazo[1,2-a]imidazol-3-ylmethyl]-(3,4-dichloro-benzyl)-ethyl-amine], the figure is < 1000 nM.
